Where only a bound is given, the exact number is not on record here.

The subject of one assay is MV4;11 cells. Briefly: MV4;11 in vitro inhibition of proliferation assay (CellTiter-Glo, 72 hours). The following applies: Homo sapiens, MV4-11, 72 h, IC50 class, read-out: Inhibitory activity of cell proliferation MV4;11. Type of assay: cell-based. In short, it runs like this: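 MV4;11 cells in IMDM/10% FBS, 2000 per well, were exposed to 9-point 3-fold DMSO dilutions from 10 uM (final DMSO 0.3%) in triplicate for 72 hours at 37° C., 5% CO2. Viability was read by CellTiter-Glo luminescence, and IC50 came from a four-parameter fit of inhibition.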
In general terms: In ATP-based viability assays light output follows the ATP content of the culture.

A further assay addresses T1, FLT3 (Homo sapiens, UniProt P36888).
T1 construct: purchased Carna 08-145
T1 sequence (P36888 27-993): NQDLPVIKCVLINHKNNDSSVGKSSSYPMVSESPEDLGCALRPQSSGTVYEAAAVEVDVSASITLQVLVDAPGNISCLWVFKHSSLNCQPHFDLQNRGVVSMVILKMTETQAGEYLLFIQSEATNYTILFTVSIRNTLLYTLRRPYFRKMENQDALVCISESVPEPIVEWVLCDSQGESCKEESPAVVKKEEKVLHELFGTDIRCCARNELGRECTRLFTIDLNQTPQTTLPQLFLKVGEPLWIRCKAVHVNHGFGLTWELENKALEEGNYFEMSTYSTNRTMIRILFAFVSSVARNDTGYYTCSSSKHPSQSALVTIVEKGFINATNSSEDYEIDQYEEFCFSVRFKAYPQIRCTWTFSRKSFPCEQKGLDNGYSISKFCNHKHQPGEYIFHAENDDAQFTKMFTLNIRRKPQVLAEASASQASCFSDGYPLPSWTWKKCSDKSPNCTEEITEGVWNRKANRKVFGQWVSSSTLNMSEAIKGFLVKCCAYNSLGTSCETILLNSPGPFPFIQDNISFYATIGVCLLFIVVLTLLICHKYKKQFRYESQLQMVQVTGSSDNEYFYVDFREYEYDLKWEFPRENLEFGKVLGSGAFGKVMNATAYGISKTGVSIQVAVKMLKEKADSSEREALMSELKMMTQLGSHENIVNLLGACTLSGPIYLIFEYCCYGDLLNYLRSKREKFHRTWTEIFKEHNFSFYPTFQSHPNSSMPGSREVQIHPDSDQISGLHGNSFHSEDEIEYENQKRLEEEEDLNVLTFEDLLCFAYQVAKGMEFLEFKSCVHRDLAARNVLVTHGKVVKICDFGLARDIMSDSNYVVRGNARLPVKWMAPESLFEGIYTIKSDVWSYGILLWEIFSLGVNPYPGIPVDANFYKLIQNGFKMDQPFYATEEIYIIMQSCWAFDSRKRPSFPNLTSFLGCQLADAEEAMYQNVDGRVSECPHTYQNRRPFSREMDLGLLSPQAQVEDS
Briefly: FLT3 kinase in vitro inhibitory activity experiment (Caliper mobility shift, conversion rate). Type of assay: biochemical. Particulars: IC50 class, read-out: Enzyme activity FLT3. Summed up: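 FLT3 was pre-incubated with compound for 10 min at room temperature, then the reaction was started with ATP plus Kinase substrate 2 and run 30 min at room temperature before stop solution. Substrate conversion was read by Caliper mobility shift.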

In the case of `CCc1nc2c(N)ncc(-c3cnn(C4CCC(F)(F)CC4)c3)c2nc1N[C@@H]1CC[C@H](O)C1` [Compound 193], the IC50 in the assay on MV4;11 cells and on FLT3 was not above 0.01 µM each time.

For the compound `CCc1nc2c(N)ncc(-c3cnn(C)c3)c2nc1N[C@@H]1CC[C@H](O)C1` [Compound 194], the IC50 in the assay on MV4;11 cells and on FLT3 was not above 0.01 µM throughout.

As for `CCc1nc2c(N)ncc(-c3cnn(C(CC)CC)c3)c2nc1N[C@@H]1CC[C@H](O)C1` [Compound 195], the IC50 in the assay on MV4;11 cells and on FLT3 was 0.01 to 0.1 µM throughout.

Consider `CCc1nc2c(N)ncc(-c3cnn(CCOC)c3)c2nc1N[C@@H]1CC[C@H](O)C1` [Compound 196], for which the IC50 in the assay on MV4;11 cells is 0.01 to 0.1 µM; on FLT3 it was not above 0.01 µM.

In the case of `CCc1nc2c(N)ncc(-c3cnn(CC(C)(C)O)c3)c2nc1N[C@@H]1CC[C@H](O)C1` [Compound 197], the IC50 with MV4;11 cells is 0.01 to 0.1 µM; at FLT3, not above 0.01 µM.

As for `CCc1nc2c(N)ncc(-c3cnn(CCO)c3)c2nc1N[C@@H]1CC[C@H](O)C1` [Compound 198], the results for the IC50 with MV4;11 cells and on FLT3 were 0.01 to 0.1 µM and not above 0.01 µM, respectively.

`CCc1nc2c(N)ncc(-c3cnn(C4COC4)c3)c2nc1N[C@@H]1CC[C@H](O)C1` [Compound 199]: the IC50 in the assay with MV4;11 cells and on FLT3 was not above 0.01 µM throughout.

As to `CCc1nc2c(N)ncc(-c3cnn(CC4COC4)c3)c2nc1N[C@@H]1CC[C@H](O)C1` [Compound 200], the IC50 in the assay on MV4;11 cells and at FLT3 was not above 0.01 µM in each case.

For the compound `CCc1nc2c(N)ncc(-c3cnn(C(C)C)c3)c2nc1N[C@@H]1CC[C@H](O)C1` [Compound 201], the IC50 with MV4;11 cells and on FLT3 was not above 0.01 µM in each case.

Consider `CCc1nc2c(N)ncc(-c3cnn(C4CC4)c3)c2nc1N[C@@H]1CC[C@H](O)C1` [Compound 202], for which the IC50 in the assay on MV4;11 cells and at FLT3 was not above 0.01 µM throughout.

In the case of `CCc1nc2c(N)ncc(-c3cn[nH]c3)c2nc1N[C@@H]1CC[C@H](O)C1` [Compound 203], the IC50 was 0.01 to 0.1 µM with MV4;11 cells and not above 0.01 µM on FLT3.

As to `CCc1nc2c(N)ncc(-c3cnn(CC4CCN(C)CC4)c3)c2nc1N[C@@H]1CC[C@H](O)C1` [Compound 204], the IC50 in the assay with MV4;11 cells and on FLT3 was not above 0.01 µM throughout.

Consider `CCOCC1(COCC)CCC(n2cc(-c3cnc(N)c4nc(CC)c(N[C@@H]5CC[C@H](O)C5)nc34)cn2)CC1` [Compound 205], for which the IC50 in the assay with MV4;11 cells and on FLT3 was not above 0.01 µM in each case.

In the case of `CCc1nc2c(N)ncc(-c3cnn(C4CCNCC4)c3)c2nc1NC1CCC(O)C1` (centres unmarked) [Compound 206], the IC50 in the assay with MV4;11 cells is 0.01 to 0.1 µM; at FLT3 it was not above 0.01 µM.

Turning to `CCc1nc2c(N)ncc(-c3cnn(C4CCN(CCO)CC4)c3)c2nc1N[C@@H]1CC[C@H](O)C1` [Compound 207, (1S,3R)-3-((5-amino-3-ethyl-8-(1-(1-(2-hydroxyethyl)piperidin-4-yl)-1H-pyrazol-4-yl)pyridino[3,4-b]pyrazin-2-yl)amino)cyclopentan-1-ol], the IC50 in the assay with MV4;11 cells and on FLT3 was not above 0.01 µM throughout.

Regarding `CCc1nc2c(N)ncc(-c3cnn(C4CCN(C5CCOCC5)CC4)c3)c2nc1N[C@@H]1CC[C@H](O)C1` [Compound 208], the IC50 in the assay with MV4;11 cells and on FLT3 was not above 0.01 µM throughout.

On to `CCc1nc2c(N)ncc(-c3cnn(C4CCN(C5COC5)CC4)c3)c2nc1N[C@@H]1CC[C@H](O)C1` [Compound 209], for which the IC50 with MV4;11 cells and on FLT3 was not above 0.01 µM each time.

As to `CCc1nc2c(N)ncc(-c3cnn(C4CCN(C5CN(C)C5)CC4)c3)c2nc1N[C@@H]1CC[C@H](O)C1` [Compound 210], the IC50 with MV4;11 cells and at FLT3 was not above 0.01 µM throughout.

For `CCc1nc2c(N)ncc(-c3cnn(C4CCN(C5CC5)CC4)c3)c2nc1N[C@@H]1CC[C@H](O)C1` [Compound 211], the IC50 with MV4;11 cells and on FLT3 was not above 0.01 µM each time.

With `CCc1nc2c(N)ncc(-c3cnn(C4CCN(C5CCC5)CC4)c3)c2nc1N[C@@H]1CC[C@H](O)C1` [Compound 212], the IC50 in the assay on MV4;11 cells and at FLT3 was not above 0.01 µM in each case.

On to `CCc1nc2c(N)ncc(-c3cnn(C4CCN(C5CCCC5)CC4)c3)c2nc1N[C@@H]1CC[C@H](O)C1` [Compound 213], for which the IC50 in the assay on MV4;11 cells and on FLT3 was not above 0.01 µM in each case.

For the compound `CCc1nc2c(N)ncc(-c3cnn(C4CCN(C5CCCCC5)CC4)c3)c2nc1N[C@@H]1CC[C@H](O)C1` [Compound 214], the IC50 in the assay on MV4;11 cells and on FLT3 was not above 0.01 µM in each case.

As to `CCc1nc2c(N)ncc(-c3cnn(C4CCN(C)CC4)c3)c2nc1N[C@@H]1CC[C@H](O)C1` [Compound 215], the IC50 in the assay with MV4;11 cells and at FLT3 was not above 0.01 µM in each case.

On to `CCc1nc2c(N)ncc(-c3cnn(C4CCN(CC)CC4)c3)c2nc1N[C@@H]1CC[C@H](O)C1` [Compound 216], for which the IC50 in the assay on MV4;11 cells and on FLT3 was not above 0.01 µM each time.

As for `CCc1nc2c(N)ncc(-c3cnn(C4CCN(C(C)C)CC4)c3)c2nc1N[C@@H]1CC[C@H](O)C1` [Compound 217], the IC50 in the assay on MV4;11 cells and at FLT3 was not above 0.01 µM in each case.

Consider `CCc1nc2c(N)ncc(-c3cnn(C4CCN(CC(F)F)CC4)c3)c2nc1N[C@@H]1CC[C@H](O)C1` [Compound 218], for which the IC50 in the assay on MV4;11 cells and on FLT3 was not above 0.01 µM throughout.

For the compound `CCc1nc2c(N)ncc(-c3cnn(C4CCN(CC(F)(F)F)CC4)c3)c2nc1N[C@@H]1CC[C@H](O)C1` [Compound 219], the IC50 with MV4;11 cells and on FLT3 was not above 0.01 µM each time.

Take `[2H]C([2H])([2H])N1CCC(n2cc(-c3cnc(N)c4nc(CC)c(N[C@@H]5CC[C@H](O)C5)nc34)cn2)CC1` [Compound 220]: the IC50 with MV4;11 cells and at FLT3 was not above 0.01 µM in each case.

Regarding `[2H]C([2H])([2H])C(N1CCC(n2cc(-c3cnc(N)c4nc(CC)c(N[C@@H]5CC[C@H](O)C5)nc34)cn2)CC1)C([2H])([2H])[2H]` [Compound 221], the IC50 with MV4;11 cells and at FLT3 was not above 0.01 µM each time.

With `[2H]C([2H])([2H])C([2H])(N1CCC(n2cc(-c3cnc(N)c4nc(CC)c(N[C@@H]5CC[C@H](O)C5)nc34)cn2)CC1)C([2H])([2H])[2H]` [Compound 222], the IC50 with MV4;11 cells and on FLT3 was not above 0.01 µM in each case.

As to `CCc1nc2c(N)ncc(-c3cnn(C4CCN(C)CC4)c3)c2nc1N[C@H]1CCOC1` [Compound 223], the IC50 in the assay with MV4;11 cells and on FLT3 was not above 0.01 µM in each case.

On to `CCc1nc2c(N)ncc(-c3cnn(C4CCN(CC)CC4)c3)c2nc1N[C@H]1CCOC1` [Compound 224], for which the IC50 in the assay with MV4;11 cells and on FLT3 was not above 0.01 µM in each case.

Consider `CCc1nc2c(N)ncc(-c3cnn(C4CCN(C(C)C)CC4)c3)c2nc1N[C@H]1CCOC1` [Compound 225], for which the IC50 in the assay with MV4;11 cells and at FLT3 was not above 0.01 µM in each case.

Turning to `CCc1nc2c(N)ncc(-c3cnn(C4CCN(C(CC)CC)CC4)c3)c2nc1N[C@H]1CCOC1` [Compound 226], the IC50 in the assay with MV4;11 cells and at FLT3 was not above 0.01 µM in each case.

Take `CCc1nc2c(N)ncc(-c3cnn(C4CCN(C(C)CC)CC4)c3)c2nc1N[C@H]1CCOC1` (some centres unmarked) [Compound 227]: the IC50 with MV4;11 cells and at FLT3 was not above 0.01 µM throughout.

As for `CCc1nc2c(N)ncc(-c3cnn(C4CCN(C5CC5)CC4)c3)c2nc1N[C@H]1CCOC1` [Compound 228], the IC50 was 0.01 to 0.1 µM with MV4;11 cells and not above 0.01 µM on FLT3.

Take `CCc1nc2c(N)ncc(-c3cnn(C4CCN(C(CC)CC)CC4)c3)c2nc1NC1CCOCC1` [Compound 232, 3-Ethyl-8-(1-(1-(pent-3-yl)piperidin-4-yl)-1H-pyrazol-4-yl)-N2-(tetrahydro-2H-pyran-4-yl)pyridino [3,4-b]pyrazine-2,5-diamine]: the IC50 with MV4;11 cells and on FLT3 was not above 0.01 µM in each case.

Take `CCc1nc2c(N)ncc(-c3cnn(C4CCN(CC(C)(C)O)CC4)c3)c2nc1NC1CCOCC1` [Compound 233]: the IC50 in the assay with MV4;11 cells and on FLT3 was not above 0.01 µM each time.

For `CCc1nc2c(N)ncc(-c3cnn(C4CCN(C(C)C)CC4)c3)c2nc1NC1CCOCC1` [Compound 234], the IC50 in the assay on MV4;11 cells and on FLT3 was not above 0.01 µM throughout.

In the case of `CCc1nc2c(N)ncc(-c3cnn(C4CCN(C5CCN(CC)CC5)CC4)c3)c2nc1NC1CCOCC1` [Compound 235], the IC50 in the assay on MV4;11 cells and at FLT3 was not above 0.01 µM each time.

These data come from patent US12673947B2 (Cytosinlab Therapeutics Co., Ltd., priority 2020, dated 2026).
